Like-named read-outs stand apart in the source and are kept apart here.
Assays:
[1] = biological target: JAK2 (Homo sapiens (Human), UniProt O60674); test: Jak Biochemical HTRF Assay (JAK2); settings: recombinant purified GST-tagged catalytic domain, [ATP] 8.5 μM, [E] 0.052 nM
Method: (§1) Jak Biochemical HTRF Assay Protocol
(§2) The ability of compounds to inhibit the activity of JAK1, JAK2, JAK3, and Tyk2 was measured using a recombinant purified GST-tagged catalytic domain for each enzyme (Invitrogen JAK1 #M4290, JAK2 #M4290, JAK3 #M4290, Tyk2 #M4290) in an HTRF format biochemical assay. […] The basic assay protocol is as follows: First, 250 nL of diluted compounds in DMSO were dispensed into the wells of a dry 384-well Black plate (Greiner #781076) using a Labcyte Echo 555 acoustic dispenser. Subsequent reagent additions employed an Agilent Bravo. Next, 18 μL of 1.11× enzyme and 1.11× substrate in 1× assay buffer (Invitrogen kinase buffer # PV3189, 2 mM DTT, 0.05% BSA) were added to the wells and shaken and then preincubated for 30 minutes at room temperature to allow compound binding to equilibrate. After equilibration, 2 μL of 10×ATP in 1× assay buffer was added to initiate the kinase reaction and the plates were shaken and then incubated at room temperature for 120 minutes. At the end of the incubation, 20 μL of 2× stop buffer (streptavidin-Dylight 650 (Thermo #84547B/100 mL), Eu-tagged pY20 antibody (Perkin Elmer #AD0067), EDTA, HEPES, and Triton) was added to quench the reaction. Plates were shaken and centrifuged and then incubated 60 minutes at room temperature and then read on a Perkin Elmer Envision (Xex=337 nm, λem=665 and 615 nm, TRF delay time=20 μs). HTRF signal=10,000*665 nm reading/615 nm reading. After normalization to untreated controls, the percent inhibition of the HTRF signal at each compound concentration was calculated. The plot of percent inhibition versus the log of compound concentration was fit with a 4-parameter dose response equation to calculate IC50 values.

[2] = biological target: JAK1 (Homo sapiens (Human), UniProt P23458); test: Jak Biochemical HTRF Assay (JAK1)
Method: as §1, §2

[3] = recombinant purified GST-tagged catalytic domain, HTRF, [ATP] 31.8 μM, [E] 1.405 nM

Sequence of JAK2 (O60674 849-1124): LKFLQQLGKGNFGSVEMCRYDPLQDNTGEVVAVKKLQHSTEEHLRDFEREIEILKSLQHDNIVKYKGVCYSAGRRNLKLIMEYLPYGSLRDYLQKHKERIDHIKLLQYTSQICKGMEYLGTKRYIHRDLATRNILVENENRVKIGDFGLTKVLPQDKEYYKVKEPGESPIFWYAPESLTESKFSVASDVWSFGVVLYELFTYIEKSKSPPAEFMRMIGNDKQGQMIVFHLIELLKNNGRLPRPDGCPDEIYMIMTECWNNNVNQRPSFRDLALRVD
Sequence of JAK1 (P23458 875-1153): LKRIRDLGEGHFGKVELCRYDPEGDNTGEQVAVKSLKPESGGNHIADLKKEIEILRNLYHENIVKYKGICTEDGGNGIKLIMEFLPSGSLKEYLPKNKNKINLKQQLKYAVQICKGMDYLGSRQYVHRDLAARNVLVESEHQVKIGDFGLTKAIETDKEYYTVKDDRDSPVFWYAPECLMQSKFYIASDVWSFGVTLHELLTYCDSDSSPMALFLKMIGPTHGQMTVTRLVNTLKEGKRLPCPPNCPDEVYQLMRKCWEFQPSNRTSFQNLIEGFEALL

Structure (SMILES)	IC50 [1]	IC50 [2, 3]	IC50 [2]
CCC1(n2nc(Nc3ccc(C(=O)N4C[C@H]5C[C@@H]4CO5)c(C)c3)c3c(=O)[nH]ccc32)CCN(C(=O)OC(C)(C)C)CC1 [Example 2-15, tert-butyl 4-(3-((4-((1R,4R)-2-oxa-5-azabicyclo[2.2.1]heptane-5-carbonyl)-3-methylphenyl)amino)-4-oxo-4,5-dihydro-1H-pyrazolo[4,3-c]pyridin-1-yl)-4-ethylpiperidine-1-carboxylate]	430 pM	400 pM	–
CCC1(n2nc(Nc3ccc(C(=O)N4CCOC[C@@H]4C)c(C)c3)c3c(=O)[nH]ccc32)CCN(C(=O)OC(C)(C)C)CC1 [Example 2-6, (S)-tert-butyl 4-ethyl-4-(3-((3-methyl-4-(3-methylmorpholine-4-carbonyl)phenyl)amino)-4-oxo-4,5-dihydro-1H-pyrazolo[4,3-c]pyridin-1-yl) piperidine-1-carboxylate]	510 pM	510 pM	–
CCC1(n2nc(Nc3ccnc(F)c3)c3c(=O)[nH]ccc32)CCN(C(=O)OC(C)(C)C)CC1 [Example 2-40, tert-butyl 4-ethyl-4-(3-(2-fluoropyridin-4-ylamino)-4-oxo-4,5-dihydropyrazolo[4,3-c]pyridin-1-yl) piperidine-1-carboxylate]	5240 pM	380 pM	–
CCc1cc(Nc2nn(C3(CC)CCN(C(=O)OC(C)(C)C)CC3)c3cc[nH]c(=O)c23)ccc1C(=O)N1CCOCC1 [Example 2-24, tert-butyl 4-ethyl-4-(3-((3-ethyl-4-(morpholine-4-carbonyl)phenyl)amino)-4-oxo-4,5-dihydro-1H-pyrazolo[4,3-c]pyridin-1-yl) piperidine-1-carboxylate]	840 pM	470 pM	–
CCC1(n2nc(Nc3ccc(C(=O)N4C5CCC4COC5)c(C)c3)c3c(=O)[nH]ccc32)CCN(C(=O)OC(C)(C)C)CC1 [Example 2-13, tert-butyl 4-(3-((4-(3-oxa-8-azabicyclo [3.2.1]octane-8-carbonyl)-3-methylphenyl)amino)-4-oxo-4,5-dihydro-1H-pyrazolo[4,3-c]pyridin-1-yl)-4-ethylpiperidine-1-carboxylate]	540 pM	–	520 pM
CCc1cc(Nc2nn(C3(CC)CCN(C(=O)OC(C)(C)C)CC3)c3cc[nH]c(=O)c23)ccc1C(=O)N1CCSCC1 [Example 2-29, tert-butyl 4-ethyl-4-(3-(3-ethyl-4-(thiomorpholine-4-carbonyl)phenylamino)-4-oxo-4,5-dihydropyrazolo[4,3-c]pyridin-1-yl) piperidine-1-carboxylate]	2720 pM	1790 pM	–
CCC1(n2nc(Nc3ccc(S(=O)(=O)N(C)C)cc3)c3c(=O)[nH]ccc32)CCN(C(=O)OC(C)(C)C)CC1 [Example 1-1, tert-butyl 4-(3-(4-(N,N-dimethylsulfamoyl)phenylamino)-4-oxo-4,5-dihydropyrazolo[4,3-c]pyridin-1-yl)-4-ethylpiperidine-1-carboxylate]	400 pM	200 pM	–
CCC1(n2nc(Nc3ccc(S(=O)(=O)N4CCC[C@H]4C)cc3)c3c(=O)[nH]ccc32)CCN(C(=O)OC(C)(C)C)CC1 (single isomer, unassigned) [Example 2-39, (R or S)-tert-butyl 4-ethyl-4-(3-(4-(2-methylpyrrolidin-1-ylsulfonyl)phenylamino)-4-oxo-4,5-dihydropyrazolo[4,3-c]pyridin-1-yl) piperidine-1-carboxylate]	–	2130 pM	–
CCC1(n2nc(Nc3ccc(C(=O)N4[C@H](C)COC[C@@H]4C)c(C)c3)c3c(=O)[nH]ccc32)CCN(C(=O)OC(C)(C)C)CC1 [Example 2-18, tert-butyl 4-(3-(4-((3S,5R)-3,5-dimethylmorpholine-4-carbonyl)-3-methylphenylamino)-4-oxo-2,3,4,5-tetrahydropyrazolo[4,3-c]pyridin-1-yl)-4-ethylpiperidine-1-carboxylate]	–	610 pM	–
CCC1(n2nc(Nc3ccc(S(=O)(=O)N4CCC[C@@H]4C)cc3)c3c(=O)[nH]ccc32)CCN(C(=O)OC(C)(C)C)CC1 (single isomer, unassigned) [Example 2-38, (S or R)-tert-butyl 4-ethyl-4-(3-(4-(2-methylpyrrolidin-1-ylsulfonyl)phenylamino)-4-oxo-4,5-dihydropyrazolo[4,3-c]pyridin-1-yl) piperidine-1-carboxylate]	–	2380 pM	–
CCC1(n2nc(Nc3ccc(C(=O)N4[C@H](C)COC[C@H]4C)c(C)c3)c3c(=O)[nH]ccc32)CCN(C(=O)OC(C)(C)C)CC1 (single isomer, unassigned) [Example 2-20, tert-butyl 4-(3-(4-((3R,5R or 3S,5S)-3,5-dimethylmorpholine-4-carbonyl)-3-methylphenylamino)-4-oxo-4,5-dihydropyrazolo[4,3-c]pyridin-1-yl)-4-ethylpiperidine-1-carboxylate]	–	790 pM	–
CCC1(n2nc(Nc3ccc(C(=O)N4[C@@H](C)COC[C@@H]4C)c(C)c3)c3c(=O)[nH]ccc32)CCN(C(=O)OC(C)(C)C)CC1 (single isomer, unassigned) [Example 2-19, tert-butyl 4-(3-(4-((3S,5S or 3R,5R)-3,5-dimethylmorpholine-4-carbonyl)-3-methylphenylamino)-4-oxo-4,5-dihydropyrazolo[4,3-c]pyridin-1-yl)-4-ethylpiperidine-1-carboxylate]	–	850 pM	–

Second part, led by results:

IC50 [1]	IC50 [2, 3]	Structure (SMILES)	IC50 [2]
250 pM	190 pM	CCC1(n2nc(Nc3ccc(C(=O)N4CC[S+]([O-])CC4)c(C)c3)c3c(=O)[nH]ccc32)CCN(C(=O)OC(C)(C)C)CC1 [Example 3-11, tert-butyl 4-ethyl-4-[3-({3-methyl-4-[(1-oxidothiomorpholin-4-yl)carbonyl]phenyl}amino)-4-oxo-4,5-dihydro-1H-pyrazolo[4,3-c]pyridin-1-yl]piperidine-1-carboxylate]	–
1170 pM	1090 pM	CCC1(n2nc(Nc3ccc(C(=O)N4C[C@@H](C)O[C@@H](C)C4)c(C)c3)c3c(=O)[nH]ccc32)CCN(C(=O)OC(C)(C)C)CC1 [Example 3-4, tert-butyl 4-{3-[(4-{[(2R,6S)-2,6-dimethylmorpholin-4-yl]carbonyl}-3-methylphenyl)amino]-4-oxo-4,5-dihydro-1H-pyrazolo[4,3-c]pyridin-1-yl}-4-ethylpiperidine-1-carboxylate]	–
700 pM	–	CCC1(n2nc(Nc3ccc(C(=O)N4CCCOC(C)C4)c(C)c3)c3c(=O)[nH]ccc32)CCN(C(=O)OC(C)(C)C)CC1 (single isomer, unassigned) [Example 3-23, tert-butyl 4-ethyl-4-[3-({3R or 3S-methyl-4-[(2-methyl-1,4-oxazepan-4-yl)carbonyl]phenyl}amino)-4-oxo-4,5-dihydro-1H-pyrazolo [4,3-c]pyridin-1-yl] piperidine-1-carboxylate]	–
870 pM	–	CCC1(n2nc(Nc3ccc(C(=O)N4CCCOC(C)C4)c(C)c3)c3c(=O)[nH]ccc32)CCN(C(=O)OC(C)(C)C)CC1 (single isomer, unassigned) [Example 3-22, tert-butyl 4-ethyl-4-[3-({3R or 3S-methyl-4-[(2-methyl-1,4-oxazepan-4-yl)carbonyl]phenyl}amino)-4-oxo-4,5-dihydro-1H-pyrazolo [4,3-c]pyridin-1-yl] piperidine-1-carboxylate]	–

Reference: patent US10072025B2, “Ethyl N-boc piperidinyl pyrazolo pyridones as Janus kinase inhibitors” (Merck Sharp & Dohme Corp., priority 2014, dated 2018)
